Starred links: 1 amine or outer side, 2 acyl side, 3 side chain; linkers in the order of their positions; H or OH if unused. Positions of bridges follow the written chain, without caps; N, C: chain ends. Non-standard residues stand in square brackets, D forms with d. Residues, ends and D or L forms follow the SMILES beside them. No end group written: not given here. Cysteamide = C(CS[*:3])N[*:1]; AEEEA = NCCOCCOCCOCC(=O)O
Legend:
LoVo cell line = assay: Cytotoxicity assay (MTT); type: cell-based, human
Protocol: […] The measurement of cell viability was done with MTT (Thiazolyl blue, Sigma M-5655) tetrazolium salt. MTT is cleaved to water-insoluble formazan dye by the “succinate-tetrazolium reductase” system, which is active only in viable cells. After formazan was solubilized by 10% SDS-0.01 M HCl, it was quantified in an ELISA spectrometer (ThermoLabsystems Multiscan EX) at 560 nm. CuSAO2 [trans-bis(salicylaldoximato)copper(II)] 7.5 μg/ml was used as a positive control for 100% toxicity.
Procedure. Cells were trypsinized from the cell culture dish (ø9 cm) with 1 ml of TE for 1-5 minutes and moved to a 50 ml Falcon tube. After this the volume was increased to 20 ml of cell line specific medium and cells were transferred to a Bürker chamber and diluted in medium to a concentration of 2500-3500 cells/100 μl depending on cell line. […]
Next day 40 μl of medium was removed from all wells except from the ones with only medium and one column with cells. […] The next day the cell morphology was analyzed with a microscope. […]
The next day, the MTT assay described above was performed. The viable count (v.c.) was calculated as: [formula]

Athymic nude mice = assay: In vivo toxicity study; settings: 1 mg i.v. into tail vein; observed 30 min after injection and 15 min on the following day
Protocol: 1 mg of targeting unit HP203 (described in Example 2) was injected i.v. into the tail vein of three Athymic nude mice in a volume of 100 μl of sterile physiological saline. The behavior of mice was observed during 30 min right after injection and during 15 min on the following day (comparison to non-injected mouse).

[1] = system: C8161T melanoma cell line; assay: Cell binding assay to immobilized targeting agents; type: cell-based, human; settings: wells coated at 30 μg/ml, 75000 cells, 30 minutes at 37° C., MTT detection
Protocol: The human melanoma cell line C8161 has been described previously by Welch et al. in Int. J. Cancer, 1991, 47: 227-237. A more metastatic cell line C8161T, called herein also “C8161T”, was developed by culturing cells from a subcutaneous melanoma tumor developed after inoculation of C8161 melanoma cells on the flank of a nude mouse. The cell line was cultured in DMEM medium adjusted to contain 2 mM L-glutamine, 1% penicillin/streptomycin, and 10% fetal bovine serum.
(§1) Preparation of plates for assays. Wells of Reacti-Bind Maleimide activated clear strip plate (Pierce, Prod#. 15150) were coated with targeting agents of this invention at a concentration of 30 μg/ml. The incubation was carried out of overnight at 20° C. The binding buffer containing unbound peptide was removed from the wells.
(§2) The wells were blocked with blocking buffer (0.5% BSA, 0.05% Tween20 in phosphate buffer saline (PBS). PBS was prepared as follows: 40 g of NaCl, 1 g of KCl, 7 g of Na2HPO4×2H2O and 1 g of KH2PO4 were dissolved in 1000 ml of deionized H2O. Blank wells as controls were prepared by treating empty wells with blocking buffer. The plates were incubated 1 hour 30 min at 20° C. After incubation the plate was washed three times with PBS, pH 7.4.
Cell binding assay. […] On following day the absorbance of plate was measured at 560 nm with ELISA-reader (ThermoLabsystems, Multiskan EX). […]

HCT-15 cell line = assay: Cell binding assay to immobilized targeting agents; type: cell-based, human; settings: wells coated at 30 μg/ml, 75000 cells, 30 minutes at 37° C., MTT detection
Protocol: The human colorectal cancer HCT-15 cell line (ATCC: CCL-225), called herein also “HCT-15”, was cultured in RPMI 1640 medium with 2 mM L-glutamine adjusted to contain 1.5 g/L sodium bicarbonate, 4.5 g/L glucose, 10 mM HEPES, and 1.0 mM sodium pyruvate, 1% penicillin/streptomycin, 10% fetal bovine serum.
as §1, §2
(§3) Cell binding assay. 75000 cells in volume of 150 μl of medium were added into coated wells and were incubated for 30 minutes at 37° C. After cell binding, the wells were washed with PBS for 30 minutes. […] On following day the absorbance of plate was measured at 560 nm with ELISA-reader (ThermoLabsystems, Multiskan EX). […]

HCT-15-LM1 cell line = assay: Cell binding assay to immobilized targeting agents; type: cell-based, human; settings: wells coated at 30 μg/ml, 75000 cells, 30 minutes at 37° C., MTT detection
From the text: The colorectal cancer cell line HCT-15-LM1 was developed as follows. The cell culture was started with cancer cells from lung metastases which had developed after injection of human colorectal cancer HCT-15 cells into the bloodstream of a mouse. The inoculation procedure was then repeated with HCT-15-LM1 cells leading to the establishment of another metastatic cell line, HCT-15-LM2.
as §1, §2
Cell binding assay. 75000 cells in volume of 150 μl of medium were added into coated wells and were incubated for 30 minutes at 37° C. […] On following day the absorbance of plate was measured at 560 nm with ELISA-reader (ThermoLabsystems, Multiskan EX). […]

[2] = system: HSC-3 oral cancer cell line; assay: Cell binding assay to immobilized targeting agents; type: cell-based, human; settings: wells coated at 30 μg/ml, 75000 cells, 30 minutes at 37° C., MTT detection
Protocol: The human oral squamous cell carcinoma line HSC-3, called herein “HSC-3” (JCRB Cell Bank 0623, National Institute of Health Sciences, Japan) was cultivated in 1:1 DMEM and Ham's F 12 medium containing 10% FBS, 1% penicillin/streptomycin, L-glutamate and sodium pyruvate and 0.4 ng/ml hydrocortisone.
as §1, §2, §3

[3] = system: mouse fibroblast cell line NIH3T3; assay: Cell binding assay to immobilized targeting agents (control cell line); type: cell-based; settings: wells coated at 30 μg/ml, 75000 cells, 30 minutes at 37° C., MTT detection
Protocol: The mouse fibroblast line NIH3T3, called herein also “NIH3T3”, has been described previously by Koga et al. in Gann, 1979, 70: 585-591. The cell line was cultured in DMEM medium adjusted to contain 2 mM L-glutamine, 1% penicillin/streptomycin, and 10% fetal bovine serum.
as §1, §2, §3

[4] = system: murine endothelial cell line SVEC4-10; assay: as above; type: cell-based, mouse; settings: control cell line SVEC4-10; wells coated at 30 μg/ml; 75000 cells, 30 minutes at 37° C.; MTT detection
Protocol: The mouse vascular endothelial cell line SVEC4-10, called herein also “SVEC4-10”, has been described previously by O'Connell et al. in J. Immunol., 1990, 144: 521-525. The cell line was cultured in DMEM medium adjusted to contain 2 mM L-glutamine, 1% penicillin/streptomycin, and 10% fetal bovine serum.
as §1, §2, §3

[5] = system: lung metastases of colorectal cancer patients; assay: Bio-panning of phage display library on clinical tumor samples; type: binding, human; settings: phage-displayed CX7C library; ex vivo panning round three
From the text: Phage display library. Standard procedures according to Smith and Scott (ibid.) were used. Phage display library used for screening of clinical samples was cloned in fUSE5 vector and was of the cyclic structure CX7C. The E. coli strain K91kan was used as host for phage amplification.
Phage display on clinical tumor samples. Tissue samples were surgically removed from lung metastases of colorectal cancer patients. Part of the sample was taken for pathological examination, rest was placed in ice cold DMEM-PI (Dulbecco's medium containing protease inhibitors PI; 10 mM PMSF (Phenyl-methyl-sulphonyl-fluoride), Aprotinin (10 mg/ml) Leupeptin (10 mg/ml)). Tissue samples were minced with a razor blade in a small cell culture plate in 1 ml of DMEM containing protease inhibitors. The samples were transferred to an eppendorf tube and washed with 1 ml DMEM-PI.
Samples were centrifuged at 5000 rpm for 4 min and were then incubated with […] transducing units of phage in 1 ml DMEM-PI at 25° C. for 15 min.
1 ml K91kan bacteria, OD600: 1-1.5, in LB containing 100 μg/ml kanamycin (kan) were infected with the washed pellet containing selectively attached phage particles at 25° C. for 25 min. […]
Then the bacteria were pelleted at 5000 rpm for 15 min. […] For the next rounds of bio-panning of clinical samples the titre of the TBS phage stock was determined as described above. […]

Compound | binding of cells to immobilized targeting agent (absorbance at 560 nm) [1] | binding of cells to immobilized targeting agent (absorbance at 560 nm) (HCT-15 cell line) | binding of cells to immobilized targeting agent (absorbance at 560 nm) (HCT-15-LM1 cell line) | binding of cells to immobilized targeting agent (absorbance at 560 nm) [2] | binding of cells to immobilized targeting agent (absorbance at 560 nm) [3] | binding of cells to immobilized targeting agent (absorbance at 560 nm) [4] | Peptides selectively binding to lung tumors (enriched in bio-panning) [5] | further results
[Cu+2].[O-]c1ccccc1C=NO.[O-]c1ccccc1C=NO [CuSAO2, trans-bis(salicylaldoximato)copper(II), reference compound] | – | – | – | – | – | – | – | cell killing (LoVo cell line; 7.5 μg/ml, positive control): 100%
CC(C)C[C@@H]1NC(=O)[C@H](Cc2ccccc2)NC(=O)CNC(=O)[C@H](Cc2ccc(O)cc2)NC(=O)[C@@H](NC(=O)[C@H](C)NC(=O)CNC(=O)[C@H](CC(=O)O)NC(=O)[C@H](C)N)CSSC[C@@H](C(=O)NCCOCCOCCOCC(=O)NCCOCCOCCOCC(=O)NCCOCCOCCOCC(N)=O)NC(=O)[C@H](CCC(N)=O)NC(=O)CNC(=O)[C@H](Cc2c[nH]c3ccccc23)NC1=O [HP203] (H-ADGACYGFLWGQC[AEEEA][AEEEA][AEEEA]-NH2; disulfide 5-13; N-terminus assumed) | – | – | – | – | – | – | – | toxic effect on mice (behavior observed) (Athymic nude mice): did not have any toxic effect; toxicity for the tested cell line (viable count, MTT) (LoVo cell line; 5 μg/ml and 138 μg/ml, 24 h, 48 h, 72 h): non-toxic
Ac-aYGFVWGEE-(Teg-Glu)2-EAT [MJ012] | bind selectively | bind selectively | bind selectively | bind selectively | significantly less binding | significantly less binding | – | –
CYGFLWGQC | – | – | – | – | – | – | selectively binding | –
CYGFVWGEC (disulfide 1-9 (inferred)) | – | – | – | – | – | – | selectively binding | –
a*YGFVWGEE*-(Teg-Glu)2-EAT ([dA]YGFVWGEE[AEEEA]E[AEEEA]E-Cysteamide; lactam N-9; not fully specified; printed as a*YGFVWGEE*-(Teg-Glu)2-EAT) [MJ013] | bind selectively | bind selectively | bind selectively | bind selectively | significantly less binding | significantly less binding | – | –

— US20070258899A1, “Diagnostic and therapeutic agents” (KARYON-CTT LTD, priority 2006, published 2007)
